Measurements: patent publication US20130115182A1, “TOPICAL USE OF STEVIOL OR DERIVATIVES IN HAIR CARE” (DSM NUTRITIONAL PRODUCTS LTD., priority 2010, published 2013)
Blank lines part the entries; values can stand above or below the compound they belong to.

Experiments:
[1] = test system: Normal human melanocytes NHM (HEMn-MP, Clonetics); assay: Quantification of melanin synthesis in cell culture; assay type: cell-based; conditions: for Melanin content, percentage of the control: three days, absorbance 405 nm
Protocol: Normal human melanocytes NHM (HEMn-MP, Clonetics) were seeded in 96 well cell culture plates and grown to sub-confluence for two days in a mixture of M2-Medium (Clonetics) and Medium (Promocell). Culture medium was exchanged with Culture Medium containing Steviol and melanogenesis progressed for another three days at 37° C. with another medium exchange on day two. Including cell layer and culture supernatant the total melanin was extracted using 1.7M KOH with vigorous shaking at RT. We measured melanin content at 405 nm in an absorbance plate reader. The data is normalized to 100% for the un-treated control sample, and expressed as percentage of the control.

[2] = test system: normal human scalp skin hair follicles; assay: Hair follicle melanogenesis (in vitro graying of cultured anagen VI scalp hair follicles); assay type: cell-based; parameters: key: remaining pigmentation is scored minimal (+); steviol 1.25 μM (++); Remaining pigmentation is scored (+++); conditions: seven day culture
Text: For optimal quality of hair follicles with an intact pigmentary-unit, normal human scalp skin hair follicles in the anagen VI stage of the hair cycle were isolated from scalp skin biopsies obtained from elective plastic surgery after obtaining informed consent from patients following the protocol published by Philpott and colleagues with slight modifications (Philpott et al. 1990, Philpott 1999). Briefly, after separation of epidermis and dermis from subcutaneous fat the dermis just above the dermis/subcutis border under a binocular dissecting microscope, the proximal two thirds of anagen hair follicles located in the subcutaneous fat were isolated using watchmakers forceps and subsequently collected in Petri dishes containing complete hair follicle culture medium (Williams E, Biochrom KG seromed, Berlin, Germany); 1% Penicillin-Streptomycin; 1% L-Glutamine 200 mM; 0.02% hydrocortisone; 0.1% Insulin. Three hair follicles per well were then randomly distributed and cultured in 24 well plates (Costar, N.Y., USA) containing […] of complete hair follicle culture medium per well. Per experiment, a minimum of three wells (containing three hair follicles each) was assigned to each test group, and was supplemented with different concentrations of test substances pre-diluted in the respective dissolvent 100× concentrated. An equal number of control follicles were cultured in complete hair follicle culture medium alone. Each experiment was repeated with hair follicles from at least three different age, pigmentation and sex matched donors. Every second day, each well was photo-documented, the pigmentation degree of each hair follicle determined, medium replaced and fresh supplements added. After 7 days hair follicles were snap frozen and stored at −80° C. Steviol was tested at two different concentrations (0.625 and 1.25 μM). […] Sphingosyl phosphorylcholine at 1 μM was used as a positive control as it is known from previous work to reduce the speed of in vitro hair graying. Remaining pigmentation is scored (+++). […]

Human hair follicles [3] = assay: RT-PCR mRNA level of marker genes in hair follicles; assay type: cell-based
Protocol: Human hair follicles were obtained from human skin fragments (obtained by plastic surgery) and grown in supplemented William's E medium supplemented with penicillin/streptomycin, L-glutamine (2 mM), insulin (10 μg/ml and hydrocortisone (8 nM). Hair follicle growth was assessed via length measurements (day 0, 4, 7). Triiodothyronine (T3, 30 μM) was used as positive control. […] At day 7, RNA was extracted from hair follicles that had been subjected to different treatments (control, T3, steviol). RNA was processed for Affymetrix® DNA microarray analysis in order to identify effects of compounds on gene expression. Where appropriate, RNA expression levels were further quantified by RT-PCR using the ABI 7900 Taqman instrumentation. The mRNA level of some marker genes involved in growth and/or differentiation of cells in the skin and in hair follicle was further determined by RT-PCR and is shown in Table 3.

Human hair follicles [4] = assay: Growth of human hair follicle (length measurements in culture); assay type: cell-based; conditions: for Growth (% of control): hair follicle length
Protocol: (§1) Human hair follicles were obtained from human skin fragments (obtained by plastic surgery) and grown in supplemented William's E medium supplemented with penicillin/streptomycin, L-glutamine (2 mM), insulin (10 μg/ml and hydrocortisone (8 nM). Hair follicle growth was assessed via length measurements (day 0, 4, 7). Triiodothyronine (T3, 30 μM) was used as positive control. The effect of steviol (at 0.625 to 5 μg/ml) was tested in parallel. At day 7, RNA was extracted from hair follicles that had been subjected to different treatments (control, T3, steviol). RNA was processed for Affymetrix® DNA microarray analysis in order to identify effects of compounds on gene expression. Where appropriate, RNA expression levels were further quantified by RT-PCR using the ABI 7900 Taqman instrumentation.

Human hair follicles [5] = assay: Affymetrix DNA microarray gene expression in hair follicles; assay type: cell-based; conditions: day 7 RNA
Protocol: as §1, with “instrumentation. Global effects of steviol on gene expression were determined by transcriptomics i.e. DNA microarray analysis. The obtained data were processed with Genedata software tools.” for “instrumentation.”

[6] = Stabilization of steviol in acidic aqueous solution (discoloration, Pantone color index); assay type: physicochemical; conditions: for Pantone index (color index of solution): 1% solution in water
Protocol: Steviol was dissolved at 1 wt.-% in water and the pH adjusted at different values as shown below. […] However, the more acidic the pH, the less discoloration was observed as reported by the patone color index. Color index of 1% Steviol solution in water at different pH: […]

Compound: CC1(C)[C@@H](O[C@H]2O[C@H](C(=O)O)[C@@H](O)[C@H](O)[C@H]2O[C@@H]2O[C@H](C(=O)O)[C@@H](O)[C@H](O)[C@H]2O)CC[C@]2(C)[C@H]3C(=O)C=C4[C@@H]5C[C@@](C)(C(=O)O)CC[C@]5(C)CC[C@@]4(C)[C@]3(C)CC[C@@H]12 [Glycyrrhizin, reference compound]
Melanin content, percentage of the control ([1]; 1.5 mM): 132%

Compound: CCCCCCCCCCCCC/C=C/[C@@H](O)[C@@H](N)COP(=O)([O-])OCC[N+](C)(C)C [Sphingosylphosphorylcholine, reference compound]
Pigmentation (remaining hair follicle pigmentation score) ([2]; 1 microM): +++

Pantone index (color index of solution) ([6]; pH 6): 155
Pantone index (color index of solution) ([6]; pH 6.5): 155
Pantone index (color index of solution) ([6]; pH 7): 158
Pantone index (color index of solution) ([6]; pH 9): 160
Time until solution turns brown (instability) ([6]; 1 wt.-% in water, pH 9): ≤ 1 days
Compound: C=C1C[C@@]23CC[C@H]4[C@@](C)(CCC[C@@]4(C)C(=O)O)[C@@H]2CC[C@]1(O)C3 [Steviol, steviol]
Fold changes (versus control), Integrin alpha-6 mRNA (Human hair follicles [3]; 0.625 μg/mL): 1.62 ± 0.06
Fold changes (versus control), COX-2 mRNA (Human hair follicles [3]; 1.25 μg/mL): 0.46 ± 0.17
Fold changes (versus control), HO-1 mRNA (Human hair follicles [3]; 1.25 μg/mL): 0.64 ± 0.08
Fold changes (versus control), Involucrin mRNA (Human hair follicles [3]; 1.25 μg/mL): 0.51 ± 0.22
Fold changes (versus control), Keratin 6 mRNA (Human hair follicles [3]; 10 μg/mL): 1.33 ± 0.11
Growth (% of control) (Human hair follicles [4]; 0.625 μg/mL): 122 % of control
Growth (% of control) (Human hair follicles [4]; 1.25 μg/mL): 121 % of control
Growth (% of control) (Human hair follicles [4]; 2.5 μg/mL): 113 % of control
Growth (% of control) (Human hair follicles [4]; 5 μg/mL): 117 % of control
Elongation of hair follicles (in words) (Human hair follicles [4]; 0.625 to 5 μg/ml): dose-dependently favoured the elongation of hair follicles
Pigmentation (remaining hair follicle pigmentation score) ([2]; 0.625 microM): +++
Pigmentation (remaining hair follicle pigmentation score) ([2]; 1.25 microM): ++
Ratio of steviol-treated/untreated, gene CASP8 and FADD-like apoptosis regulator (Human hair follicles [5]): 2.58
Ratio of steviol-treated/untreated, gene Chemokine (C-X-C motif) ligand 12 (stromal cell-derived factor 1) (Human hair follicles [5]): 2.22
Ratio of steviol-treated/untreated, gene Collagen, type IV, alpha 6 (Human hair follicles [5]): 2.04
Ratio of steviol-treated/untreated, gene Fibroblast growth factor 7 (keratinocyte growth factor) (Human hair follicles [5]): 2.91
Ratio of steviol-treated/untreated, gene Insulin-like growth factor 1 receptor (Human hair follicles [5]): 2.00
Ratio of steviol-treated/untreated, gene Integrin, alpha 6 (Human hair follicles [5]): 2.15
Ratio of steviol-treated/untreated, gene TIMP metallopeptidase inhibitor 3 (Human hair follicles [5]): 2.32
Ratio of steviol-treated/untreated, gene Topoisomerase (DNA) II alpha 170 kDa (Human hair follicles [5]): 2.45
Ratio of steviol-treated/untreated, gene Transmembrane protein with EGF-like and two follistatin-like domains 2 (Human hair follicles [5]): 3.10
Melanin content, percentage of the control ([1]; 0.25 microM): 109%
Production of melanin in human melanocytes (in words) ([1]; 0.25 to 1 micro M): clear dose dependent positive effect on the production of melanin
Melanin content, percentage of the control ([1]; 0.5 micro M): 124%
Melanin content, percentage of the control ([1]; 1 micro M): 130%

Compound: N[C@@H](Cc1cc(I)c(Oc2ccc(O)c(I)c2)c(I)c1)C(=O)O [Triiodothyronine, reference compound]
Growth (% of control) (Human hair follicles [4]; 30 μM, day 0, 4, 7): 133 % of control
